# Measurements as given in patent US9700516B2, “Compositions and methods for reducing overdose” (priority 2014, dated 2017).
# Assay: Effect of alkalinizing agents on the pH of a solution of 0.1 N HCl with a starting pH of 2.0
# Type: physicochemical
# Description: Various alkalinizing agents were added to a solution of 0.1 N HCl with a starting pH of 2.0 and the pH of the solution was tested at different time points.
smiles,measurement,setting,value
[Mg+2].[OH-].[OH-] [magnesium hydroxide],pH,"60 mg per 320 mL, 2 min",2.29
same,pH,"60 mg per 320 mL, 3 min",2.41
same,pH,"60 mg per 320 mL, 4 min",2.47
same,pH,"60 mg per 320 mL, 5 min",2.48
same,pH,"60 mg per 320 mL, 6 min",2.48
same,pH,"60 mg per 320 mL, 7 min",2.49
same,pH,"60 mg per 320 mL, 8 min",2.49
same,pH,"60 mg per 320 mL, 9 min",2.49
same,pH,"60 mg per 320 mL, 10 min",2.49
same,pH,"60 mg per 320 mL, 20 min",2.50
same,pH,"60 mg per 500 mL, 2 min",2.12
same,pH,"60 mg per 500 mL, 3 min",2.17
same,pH,"60 mg per 500 mL, 4 min",2.18
same,pH,"60 mg per 500 mL, 5 min",2.19
same,pH,"60 mg per 500 mL, 6 min",2.19
same,pH,"60 mg per 500 mL, 7 min",2.19
same,pH,"60 mg per 500 mL, 8 min",2.19
same,pH,"60 mg per 500 mL, 9 min",2.19
same,pH,"60 mg per 500 mL, 10 min",2.19
same,pH,"60 mg per 500 mL, 20 min",2.19
same,effect on pH of the solution,"71 mg/200 ml, 81 mg/200 ml and 100 mg/200 ml",raised the pH of the solution to neutral or higher
same,pH,"90 mg per 320 mL, 2 min",2.37
same,pH,"90 mg per 320 mL, 3 min",2.55
same,pH,"90 mg per 320 mL, 4 min",2.77
same,pH,"90 mg per 320 mL, 5 min",3.06
same,pH,"90 mg per 320 mL, 6 min",3.13
same,pH,"90 mg per 320 mL, 7 min",3.22
same,pH,"90 mg per 320 mL, 8 min",3.28
same,pH,"90 mg per 320 mL, 9 min",3.31
same,pH,"90 mg per 320 mL, 10 min",3.33
same,pH,"90 mg per 320 mL, 20 min",3.34
same,pH,"100 mg per 320 mL, 2 min",2.36
same,pH,"100 mg per 320 mL, 3 min",2.53
same,pH,"100 mg per 320 mL, 4 min",2.74
same,pH,"100 mg per 320 mL, 5 min",3.07
same,pH,"100 mg per 320 mL, 6 min",3.39
same,pH,"100 mg per 320 mL, 7 min",3.73
same,pH,"100 mg per 320 mL, 8 min",4.26
same,pH,"100 mg per 320 mL, 9 min",5.41
same,pH,"100 mg per 320 mL, 10 min",5.86
same,pH,"100 mg per 320 mL, 20 min",6.51
same,pH,"100 mg per 500 mL, 2 min",2.21
same,pH,"100 mg per 500 mL, 3 min",2.33
same,pH,"100 mg per 500 mL, 4 min",2.38
same,pH,"100 mg per 500 mL, 5 min",2.40
same,pH,"100 mg per 500 mL, 6 min",2.40
same,pH,"100 mg per 500 mL, 7 min",2.41
same,pH,"100 mg per 500 mL, 8 min",2.41
same,pH,"100 mg per 500 mL, 9 min",2.41
same,pH,"100 mg per 500 mL, 10 min",2.41
same,pH,"100 mg per 500 mL, 20 min",2.41
same,effect on pH of the solution,"100 mg/320 ml, 180 mg/500 ml, 120 mg/320 ml, 200 mg/500 ml and 240 mg/500 ml",rapidly raised the pH of the solution to neutral or higher
same,pH,"120 mg per 320 mL, 2 min",2.49
same,pH,"120 mg per 320 mL, 3 min",2.87
same,pH,"120 mg per 320 mL, 4 min",3.54
same,pH,"120 mg per 320 mL, 5 min",5.75
same,pH,"120 mg per 320 mL, 6 min",6.65
same,pH,"120 mg per 320 mL, 7 min",7.81
same,pH,"120 mg per 320 mL, 8 min",8.55
same,pH,"120 mg per 320 mL, 9 min",8.83
same,pH,"120 mg per 320 mL, 10 min",8.94
same,pH,"120 mg per 320 mL, 20 min",9.20
same,pH,"120 mg per 500 mL, 2 min",2.21
same,pH,"120 mg per 500 mL, 3 min",2.35
same,pH,"120 mg per 500 mL, 4 min",2.44
same,pH,"120 mg per 500 mL, 5 min",2.52
same,pH,"120 mg per 500 mL, 6 min",2.57
same,pH,"120 mg per 500 mL, 7 min",2.59
same,pH,"120 mg per 500 mL, 8 min",2.59
same,pH,"120 mg per 500 mL, 9 min",2.59
same,pH,"120 mg per 500 mL, 10 min",2.59
same,pH,"120 mg per 500 mL, 20 min",2.60
same,effect on pH of the solution,160 mg/320 ml (0.5 mg/ml),rapidly raised the pH of the solution to neutral or higher
same,pH,"180 mg per 500 mL, 2 min",2.56
same,pH,"180 mg per 500 mL, 3 min",3.09
same,pH,"180 mg per 500 mL, 4 min",3.90
same,pH,"180 mg per 500 mL, 5 min",5.69
same,pH,"180 mg per 500 mL, 6 min",6.28
same,pH,"180 mg per 500 mL, 7 min",6.64
same,pH,"180 mg per 500 mL, 8 min",7.01
same,pH,"180 mg per 500 mL, 9 min",7.61
same,pH,"180 mg per 500 mL, 10 min",8.25
same,pH,"180 mg per 500 mL, 20 min",9.07
same,pH,"200 mg per 500 mL, 2 min",2.48
same,pH,"200 mg per 500 mL, 3 min",2.81
same,pH,"200 mg per 500 mL, 4 min",3.54
same,pH,"200 mg per 500 mL, 5 min",5.42
same,pH,"200 mg per 500 mL, 6 min",6.63
same,pH,"200 mg per 500 mL, 7 min",7.99
same,pH,"200 mg per 500 mL, 8 min",8.86
same,pH,"200 mg per 500 mL, 9 min",9.07
same,pH,"200 mg per 500 mL, 10 min",9.18
same,pH,"200 mg per 500 mL, 20 min",9.41
same,pH,"240 mg per 500 mL, 2 min",2.54
same,pH,"240 mg per 500 mL, 3 min",3.14
same,pH,"240 mg per 500 mL, 4 min",5.90
same,pH,"240 mg per 500 mL, 5 min",7.73
same,pH,"240 mg per 500 mL, 6 min",9.09
same,pH,"240 mg per 500 mL, 7 min",9.35
same,pH,"240 mg per 500 mL, 8 min",9.47
same,pH,"240 mg per 500 mL, 9 min",9.54
same,pH,"240 mg per 500 mL, 10 min",9.59
same,pH,"240 mg per 500 mL, 20 min",9.71
same,pH of the solution,"all tested amounts, over the times tested",above 2.0
